pIC50: −log10 of the molar value. Like-named read-outs stand apart in the source and are kept apart here.
Assays:
Assay type in all cases: cell-based
Hela = test: Antiproliferation assay (MTS), HeLa cells; conditions: Homo sapiens, 96 h
Description: (§1) Cells were grown at 37° C. in a humidified atmosphere consisting of 5% CO2 and 95% air.
(§2) Antiproliferation Assays: Cells were plated in a 96-well culture plate with 2000-8000 cells per well. The compounds were prepared in DMSO and used to treat cells in a final concentration of less than 1% DMSO. Compound treatment started after overnight incubation of cells (T0). […] Compound was added to the plate in triplicate wells, and the plates were then incubated for 96 hours. DMSO (compound diluent) was also included and added to the plate in control wells. Cell viability was then determined by MTS assay using the CellTiter 96® aqueous non-radioactive cell proliferation assay system (Promega, Madison, Wis. 53711 USA). A plate reader (Vmax, Molecular Devices, Sunnyvale Calif. 94089 USA) was used to determine the optical densities, and the results were used to deduce concentration-response curves. […] The results were analyzed using linear regression software (GraphPad Prism 5; GraphPad Software Inc. La Jolla Calif. 92037 USA).

K562 = test: Antiproliferation assay (MTS), K562 cells; conditions: Homo sapiens, K562, 96 h
Description: as §1, §2

MDA-MB-468 = test: Antiproliferation assay (MTS), MDA-MB-468 cells; conditions: Homo sapiens, MDA-MB-468, 96 h
Description: as §1, §2

MDA-MB-231 = test: Antiproliferation assay (MTS), MDA-MB-231 cells; conditions: Homo sapiens, MDA-MB-231, 96 h
Description: as §1, §2

[1] = Table 1, read-out: Antiproliferative IC50 Hela
[2] = Table 1, read-out: Antiproliferative IC50 K562
[3] = Table 1, read-out: Antiproliferative IC50 MDA-MB-468
[4] = read-out: Antiproliferative IC50 MDA-MB-231, Table 1

| pIC50 (Hela; [1]) | pIC50 (K562; [2]) | pIC50 (MDA-MB-468; [3]) | pIC50 (MDA-MB-231; [4]) | pIC50 (Hela; Table 2, read-out: Antiproliferative IC50 Hela) | pIC50 (K562; Table 2, read-out: Antiproliferative IC50 K562) | pIC50 (MDA-MB-468; Table 2, read-out: Antiproliferative IC50 MDA-MB-468) | pIC50 (MDA-MB-231; read-out: Antiproliferative IC50 MDA-MB-231, Table 2) | Structure (SMILES) |
| --- | --- | --- | --- | --- | --- | --- | --- | --- |
| 8.08 | 7.93 | 7.78 | 7.66 | – | – | – | – | COCCNc1ccc(Oc2cc(C)c(-c3csc(NC(=O)c4ccncc4)n3)c(C)c2)cn1 [Compound 29, N-(4-{4-(6-(2-Methoxyethylamino)pyridin-3-yloxy)-2,6-dimethylphenyl}thiazol-2-yl)isonicotinamide] |
| 6.97 | 6.97 | 6.84 | 6.57 | – | – | – | – | COc1ccc(Oc2cc(C)c(-c3csc(NC(=O)c4ccncc4)n3)c(F)c2)cc1 [Compound 30, N-{4-(2-Fluoro-4-(4-methoxyphenoxy)-6-methylphenyl)thiazol-2-yl}isonicotinamide] |
| 6.02 | 6.20 | 6.00 | 5.95 | – | – | – | – | COCCOc1cnc(S(=O)(=O)c2cc(C)c(-c3csc(NC(=O)c4ccncc4)n3)c(C)c2)cn1 [Compound 31, N-(4-{4-(5-(2-Methoxyethoxy)pyrazin-2-ylsulfonyl)-2,6-dimethylphenyl}thiazol-2-yl)isonicotinamide] |
| 5.95 | 6.13 | 5.89 | 5.77 | – | – | – | – | COCCOc1cnc([S+]([O-])c2cc(C)c(-c3csc(NC(=O)c4ccncc4)n3)c(C)c2)cn1 (stereo not shown) [Compound 32, N-(4-{4-(5-(2-Methoxyethoxy)pyrazin-2-ylsulfinyl)-2,6-dimethylphenyl}thiazol-2-yl)isonicotinamide] |
| 7.24 | 7.55 | 7.14 | 7.31 | – | – | – | – | COc1ccc(Sc2cc(C)c(-c3csc(NC(=O)c4ccncc4)n3)c(C)c2)cc1OC [Compound 33, N-{4-(4-(3,4-Dimethoxyphenylsulfanyl)-2,6-dimethylphenyl)thiazol-2-yl}isonicotinamide] |
| 6.52 | 7.05 | 6.55 | 6.74 | – | – | – | – | Cc1cc(Sc2ccc(O)cc2)cc(C)c1-c1csc(NC(=O)c2ccncc2)n1 [Compound 34, N-{4-(4-(4-Hydroxyphenylsulfanyl)-2,6-dimethylphenyl)thiazol-2-yl}isonicotinamide] |
| 7.36 | 7.58 | 7.02 | 7.33 | – | – | – | – | Cc1cc(Sc2ccc(N)cc2)cc(C)c1-c1csc(NC(=O)c2ccncc2)n1 [Compound 35, N-{4-(4-(4-Aminophenylsulfanyl)-2,6-dimethylphenyl)thiazol-2-yl}isonicotinamide] |
| 7.61 | 7.72 | 7.20 | 7.35 | – | – | – | – | CC(=O)Nc1ccc(Sc2cc(C)c(-c3csc(NC(=O)c4ccncc4)n3)c(C)c2)cc1 [Compound 36, N-{4-(4-(4-Acetylaminophenylsulfanyl)-2,6-dimethylphenyl)thiazol-2-yl}isonicotinamide] |
| 6.61 | 7.20 | 6.64 | 6.83 | – | – | – | – | Cc1cc(Sc2ccc(Br)cc2)cc(C)c1-c1csc(NC(=O)c2ccncc2)n1 [Compound 37, N-{4-(4-(4-Bromophenylsulfanyl)-2,6-dimethylphenyl)thiazol-2-yl}isonicotinamide] |
| 6.30 | 6.89 | 6.45 | 6.71 | – | – | – | – | Cc1cc(Sc2cccc(Cl)c2)cc(C)c1-c1csc(NC(=O)c2ccncc2)n1 [Compound 38, N-{4-(4-(3-Chlorophenylsulfanyl)-2,6-dimethylphenyl)thiazol-2-yl}isonicotinamide] |
| 6.68 | 7.44 | 7.13 | 7.25 | – | – | – | – | Cc1cc(Sc2ccccc2Cl)cc(C)c1-c1csc(NC(=O)c2ccncc2)n1 [Compound 39, N-{4-(4-(2-Chlorophenylsulfanyl)-2,6-dimethylphenyl)thiazol-2-yl}isonicotinamide] |
| 6.23 | 7.03 | 6.91 | 6.70 | – | – | – | – | Cc1cc(Sc2ccc(Cl)cc2)cc(C)c1-c1csc(NC(=O)c2ccncc2)n1 [Compound 40, N-{4-(4-(4-Chlorophenylsulfanyl)-2,6-dimethylphenyl)thiazol-2-yl}isonicotinamide] |
| 7.21 | 7.51 | 7.20 | 7.06 | – | – | – | – | Cc1cc(Sc2nccn2C)cc(C)c1-c1csc(NC(=O)c2ccncc2)n1 [Compound 41, N-(4-(2,6-Dimethyl-4-((1-methyl-1H-imidazol-2-yl)thio)phenyl)thiazol-2-yl)isonicotinamide] |
| 6.78 | 7.23 | 6.92 | 7.12 | – | – | – | – | Cc1cc(Sc2ccc(N(S(C)(=O)=O)S(C)(=O)=O)cc2)cc(C)c1-c1csc(NC(=O)c2ccncc2)n1 [Compound 42, N-(4-(2,6-Dimethyl-4-((4-(N-(methylsulfonyl)methylsulfonamido)phenyl)thio)phenyl)thiazol-2-yl)isonicotinamide] |
| 7.18 | 7.58 | 7.31 | 7.27 | – | – | – | – | Cc1cc(Sc2ccc(NS(C)(=O)=O)cc2)cc(C)c1-c1csc(NC(=O)c2ccncc2)n1 [Compound 43, N-(4-(2,6-Dimethyl-4-((4-(methylsulfonamido)phenyl)thio)phenyl)thiazol-2-yl)isonicotinamide] |
| 6.21 | 6.42 | 6.52 | 6.51 | – | – | – | – | Cc1cc(C)c(-c2csc(NC(=O)Cc3ccncc3)n2)c(C)c1 [Compound 47, N-(4-Mesitylthiazol-2-yl)-2-(pyridin-4-yl)acetamide] |
| 7.31 | 7.46 | 7.43 | 7.49 | – | – | – | – | COc1ccc(Oc2cc(C)c(-c3csc(NC(=O)c4ccncc4)n3)c(C)c2)cc1 [Compound 48, N-(4-(4-(4-Methoxyphenoxy)-2,6-dimethylphenyl)thiazol-2-yl)isonicotinamide] |
| 7.37 | 7.79 | 7.40 | 7.70 | – | – | – | – | COc1ccc(Oc2cc(C)c(-c3csc(NC(=O)c4ccnc(F)c4)n3)c(C)c2)cc1 [Compound 49, 2-Fluoro-N-(4-(4-(4-methoxyphenoxy)-2,6-dimethylphenyl)thiazol-2-yl)isonicotinamide] |
| – | – | – | – | 6.21 | 6.42 | 6.52 | 6.51 | Cc1cc(C)c(-c2csc(NC(=O)Cc3ccncc3)n2)c(C)c1 [II-93, N-(4-Mesitylthiazol-2-yl)-2-(pyridin-4-yl)acetamide] |

Source: patent publication US8999983B2, “Modulators of Hec1 activity and methods therefor” (Taivex Therapeutics Corporation, priority 2011, dated 2015)
